Measurements from PMC12384008, “Assessment of Biological Activity of Low Molecular Weight 1,4-Benzoquinone Derivatives” (Biomolecules, 2025).
“And” between values parts separate entries of the source, which are not always exact repeats. Equal values may be shown once. Read-outs that look alike come from different tables or passages of the source.

Tests used:
[1] = ORAC assay (peroxyl radical antioxidant activity); conditions: benzoquinone 50 µM
Procedure: For the determination of antioxidant capacity by ORAC method, the commercially available OxiSelect™ Oxygen Radical Antioxidant Capacity (ORAC) Activity Assay kit was used (cat. no. STA-345, Cell Biolabs, Inc., San Diego, CA, USA).
The ability of benzoquinones to prevent excessive oxidation caused by ROS was tested using the commercially available OxiSelect™ Oxygen Radical Antioxidant Capacity (ORAC) Activity Assay kit (cat. no. STA-345, Cell Biolabs, Inc., San Diego, CA, USA), following the manufacturer’s protocol with slight adjustments concerning the antioxidant standard final concentrations. Stock solutions of benzoquinones were prepared in DMSO while 5 mM Trolox (used as an antioxidant standard) was provided by the manufacturer as a solution, and their further dilutions were carried out in 50% v/v acetone. Benzoquinones (50 µM) and Trolox (2.5–50 µM) were incubated with 1x Fluorescein Solution in 96-well black microplates at 37 °C for 30 min. After incubation time, Free Radical Initiator Solution was added. The sample reading was performed at 37 °C with an excitation wavelength of 480 nm and an emission wavelength of 520 nm. […] Net AUC values were compared to a Trolox standard curve and antioxidant capacity was presented as Trolox equivalent (TE) concentrations. All readouts were recorded on a plate reader (SpectraMax iD3, Molecular Devices, LLC, San Jose, CA, USA). Calculations were performed using the statistical package GraphPadPrism 8 (Graph Pad Inc, San Diego, CA, USA).
The ORAC assay was used to evaluate the ability of 1,4-benzoquinone derivatives to prevent oxidative damage caused by generation of ROS. In this assay, the quenching of the fluorescent probe (fluorescein) over time by the peroxyl radicals generated by the Free Radical Initiator Solution was monitored. Since the antioxidant capacity of benzoquinones correlates with the fluorescence decay, the peroxyl radical antioxidant activity of the selected compounds was determined by comparing the antioxidant standard curve of Trolox and was expressed as TE (Trolox equivalents)/µM [58].

[2] = molecular target: T1, purified native human BChE (Homo sapiens, UniProt P06276); experiment: biochemical; type: biochemical; conditions: for SI = Ki(AChE)/Ki(BChE): selectivity index
T1 construct: purified native human BChE; tissue gift of Dr Florian Nachon (IRBA, Brétigny-sur-Orge, France)

recombinant human AChE = molecular target: T2, recombinant human AChE (Homo sapiens, UniProt P22303); experiment: Inhibition of AChE (modified Ellman method, Hunter–Downs evaluation); type: biochemical; conditions: for AChE type of inhibition (in words): according to Hunter–Downs plot; for times less potent as inhibitor of AChE than donepezil: compared to donepezil Ki of ref 50; for times less potent as inhibitor of AChE than galantamine: compared to galantamine Ki of ref 50; for fold higher AChE inhibition potency than meta position counterpart: para compounds 5 and 3 vs meta compounds 4 and 2; on AChE Ki: ATCh 0.05–0.50 mM
T2 construct: gift of Dr Florian Nachon (IRBA, Brétigny-sur-Orge, France)
Procedure: All measurements of cholinesterase activity were performed in 0.1 M sodium phosphate buffer (pH 7.4). Acetylthiocholine (ATCh), used as a substrate, and thiol reagent 5,5′-dithiobis (2-nitrobenzoic acid) (DTNB) were purchased from Sigma–Aldrich, St. Louis, MO, USA. ATCh was dissolved in water and DTNB in sodium phosphate buffer. Stock solutions of compounds were prepared in DMSO (Gram-mol, Zagreb, Croatia), and all further dilutions were carried out in water. As the source of AChE and BChE, purified native human BChE and recombinant human AChE, both kindly provided by Dr Florian Nachon (Département de Toxicologie, Armed Forces Biomedical Research Institute (IRBA), Brétigny-sur-Orge, France), were used. Both enzymes were diluted in a phosphate buffer containing 0.1% BSA, while further dilutions were in a phosphate buffer with 0.01% BSA.
Enzyme activity measurements were carried out spectrophotometrically using a slightly modified Ellman method, as previously described. […] At least three inhibitor concentrations were used at each substrate concentration in at least three experiments. To calculate the enzyme inhibitor dissociation constants (Ki), the Hunter–Downs equation and the linear regression analysis were used:Ki,app = (vi∙i)/(v0 − vi) = Ki + Ki/KS s where Ki,app stands for the apparent inhibition constant and KS for the enzyme–substrate dissociation constant.
The final content of DMSO in measurements was up to 0.4%, and inhibitory reactions containing more than 0.1% of DMSO were corrected for control reactions containing a corresponding concentration of DMSO. No side interactions of the tested compounds with ATCh or DTNB were detected. Measurements were performed at 25 °C and wavelength λ = 412 nm on a Tecan Infinite M200Pro (Tecan Austria GmbH, Salzburg, Austria), and for all calculations, the statistical package GraphPadPrism 8 (Graph Pad Inc., San Diego, CA, USA) was used.
The selectivity index (SI) was determined using the following ratio: SI = Ki(AChE)/Ki(BChE).

[3] = molecular target: T3, human recombinant β-secretase (BACE1) (Homo sapiens, UniProt P56817); experiment: Inhibition of BACE1 (spectrofluorimetric method); type: biochemical; conditions: 50 μM compound; three independent measurements ± SD
T3 construct: purchased Sigma Aldrich, St. Louis, MO, USA S4195
Procedure: For the determination of BACE1 activity, a human recombinant β-secretase (BACE1) (cat. no. S4195, Sigma Aldrich, St. Louis, MO, USA) as the source of the enzyme and 7-Methoxycoumarin-4-acetyl-[Asn670, Leu671]-Amyloid β/A4 Precursor Protein 770 Fragment 667–676(2,4-dinitrophenyl)Lys-Arg-Arg amide (cat. no. A1472, Sigma Aldrich, St. Louis, MO, USA) as the substrate were used. All measurements were conducted in 50 mM sodium acetate buffer (pH 4.5) with 0.005% Triton X-100. Commercially available β-secretase Inhibitor III (cat. no. 565780, EMD Millipore Corp., Billerica, MA, USA) was used as positive control.
BACE1 activity was determined using a slightly modified spectrofluorimetric method, as described in our previous work. Stock solutions of tested compounds were prepared in DMSO, and further dilutions were carried out in 50 mM sodium acetate buffer (pH 4.5) containing 0.005% Triton X-100. […] To eliminate any potential influence of benzoquinone and/or buffer on the intensity of fluorescence signal, non-enzymatic (buffer, substrate, and benzoquinones) and blank reactions (buffer and substrate only) were also measured and subtracted from inhibition and control reaction, respectively. As a positive control of BACE1 inhibition, commercially available β-secretase Inhibitor III (EMD Millipore Corp., Billerica, MA, USA) was used (5 µM), which inhibited over 90% of BACE1 activity, corresponding to the manufacturer’s data. All fluorescence signal readouts were recorded at room temperature (25 °C) at zero and two hours after incubation at 37 °C, on a plate reader (SpectraMax iD3, Molecular Devices, LLC, San Jose, CA, USA) with excitation at 320 nm and emission at 405 nm.

[4] = set-up: method as in doi:10.2298/JSC220304044D; conditions: previous study ref 56; cited from earlier work
[5] = FRAP assay (ferric-reducing antioxidant power); conditions: 50 and 100 μM
Description: All chemicals for FRAP antioxidant activity measurements were purchased from Sigma Aldrich (St. Louis, MO, USA), except for FeCl3 and tripyridyltriazine (TPTZ), which were purchased from Kemika, Zagreb, Croatia, and Fluka, Buchs, Switzerland, respectively.
A ferric-reducing antioxidant power (FRAP) assay was used to determine the antioxidant capacity of tested benzoquinones, following a slightly modified protocol by Benzie and Strain [41, 42]. The water-soluble derivative of vitamin E (Trolox) and butylated hydroxytoluene (BHT) were used as standard antioxidants. […] All absorbance readouts were recorded at 593 nm against a blank and corrected for the value of absorbance of corresponding benzoquinone alone. All measurements were performed in three independent experiments. FRAP values were calculated using a standard curve for FeSO4 × 7H2O. All readouts were recorded on a plate reader (SpectraMax iD3, Molecular Devices, LLC, San Jose, CA, USA).

[6] = 400 μM compound (maximum concentration used), 0.1 mM ATCh

T2 sequence (P22303 32-614): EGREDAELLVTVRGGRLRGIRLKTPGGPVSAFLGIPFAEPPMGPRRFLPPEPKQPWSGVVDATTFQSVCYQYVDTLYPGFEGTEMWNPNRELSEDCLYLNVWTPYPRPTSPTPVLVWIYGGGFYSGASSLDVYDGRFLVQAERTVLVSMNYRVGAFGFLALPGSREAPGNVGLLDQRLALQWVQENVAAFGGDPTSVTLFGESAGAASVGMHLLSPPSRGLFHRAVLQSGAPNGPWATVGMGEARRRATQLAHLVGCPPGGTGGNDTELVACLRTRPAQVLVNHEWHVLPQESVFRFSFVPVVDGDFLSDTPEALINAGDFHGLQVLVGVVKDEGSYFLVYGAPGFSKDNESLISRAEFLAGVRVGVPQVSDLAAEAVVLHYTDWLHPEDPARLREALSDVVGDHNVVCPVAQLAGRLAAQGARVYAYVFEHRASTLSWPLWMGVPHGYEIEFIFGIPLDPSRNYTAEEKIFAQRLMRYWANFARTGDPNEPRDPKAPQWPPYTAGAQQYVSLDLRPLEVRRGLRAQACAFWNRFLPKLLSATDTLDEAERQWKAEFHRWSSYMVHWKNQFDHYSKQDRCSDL
T1 sequence (P06276 29-602): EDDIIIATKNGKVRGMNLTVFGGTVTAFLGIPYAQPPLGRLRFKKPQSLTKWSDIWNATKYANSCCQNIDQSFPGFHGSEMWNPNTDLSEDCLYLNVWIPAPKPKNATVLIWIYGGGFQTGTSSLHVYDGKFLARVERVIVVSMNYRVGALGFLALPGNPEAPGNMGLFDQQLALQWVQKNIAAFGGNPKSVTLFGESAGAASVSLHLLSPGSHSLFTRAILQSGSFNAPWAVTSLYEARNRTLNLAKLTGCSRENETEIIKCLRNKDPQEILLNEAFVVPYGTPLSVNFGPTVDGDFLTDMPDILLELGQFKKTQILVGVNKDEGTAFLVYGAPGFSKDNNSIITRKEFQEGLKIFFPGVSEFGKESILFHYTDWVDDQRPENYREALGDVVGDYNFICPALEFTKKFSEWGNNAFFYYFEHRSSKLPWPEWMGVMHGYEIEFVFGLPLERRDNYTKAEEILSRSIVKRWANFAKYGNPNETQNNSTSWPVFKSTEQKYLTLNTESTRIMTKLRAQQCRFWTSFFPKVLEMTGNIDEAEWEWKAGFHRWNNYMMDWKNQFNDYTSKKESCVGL
T3 sequence (P56817 46-501): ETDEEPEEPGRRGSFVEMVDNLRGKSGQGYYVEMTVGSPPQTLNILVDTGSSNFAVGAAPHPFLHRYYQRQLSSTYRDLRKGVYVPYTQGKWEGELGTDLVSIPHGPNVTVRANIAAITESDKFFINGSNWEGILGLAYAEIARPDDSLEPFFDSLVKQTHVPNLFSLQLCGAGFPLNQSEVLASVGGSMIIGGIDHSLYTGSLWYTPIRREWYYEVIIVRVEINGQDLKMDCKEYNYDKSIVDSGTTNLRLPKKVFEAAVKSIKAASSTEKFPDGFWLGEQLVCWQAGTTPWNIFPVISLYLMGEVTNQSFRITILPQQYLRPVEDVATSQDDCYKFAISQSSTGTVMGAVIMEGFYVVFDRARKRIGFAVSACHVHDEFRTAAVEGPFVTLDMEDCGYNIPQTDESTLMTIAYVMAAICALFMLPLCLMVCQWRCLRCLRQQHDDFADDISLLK

SMILES	ORAC value, TE (Trolox equivalents) [1]	Ki ([2]; read-out: BChE Ki) [µM]	SI = Ki(AChE)/Ki(BChE) [2]	Ki (recombinant human AChE; read-out: AChE Ki) [µM]	inhibition at 50 µM [3] [%]	also measured
CC(C)(C)C1=CC(=O)C(SC2CCCC2)=CC1=O [Compound 5]	11.0 ± 0.3 µM	5.2 ± 0.7	5.6	29 ± 5	11 ± 2	AChE type of inhibition (in words) (recombinant human AChE): competitive; times less potent as inhibitor of AChE than donepezil (recombinant human AChE): ~1166; times less potent as inhibitor of AChE than galantamine (recombinant human AChE): about 54; fold higher AChE inhibition potency than meta position counterpart (recombinant human AChE): approximately 1.7
CNC1=CC(=O)C=C(C(C)(C)C)C1=O [Compound 13]						BChE inhibitory activity [2, 6]: did not show any inhibitory activity; AChE inhibitory activity (recombinant human AChE; [6]): did not show any inhibitory activity
CC(C)(C)C1=CC(=O)C=C(Sc2ccccc2)C1=O [Compound 6]		18 ± 4	7.6	136 ± 13		DPPH antioxidant activity relative to ascorbic acid [4]: approximately twice as potent as ascorbic acid
CC(C)(C)C1=CC(=O)C=C(Sc2ccc3ccccc3c2)C1=O [Compound 10]	9.3 ± 0.5 µM	37 ± 5	0.81	30 ± 3	26.2	AChE type of inhibition (in words) (recombinant human AChE): mixed-type
CC(C)(C)C1=CC(=O)C=C(SCCO)C1=O [Compound 2]		33 ± 1	2.4	80 ± 7		AChE type of inhibition (in words) (recombinant human AChE): mixed
CC(C)(C)C1=CC(=O)C=CC1=O [Compound 1, tert-butyl-1,4-benzoquinone]	16.7 ± 0.1 µM		0.95			Ki [2]: 55 ± 5 µM; FRAP antioxidant activity compared to standard antioxidants Trolox and BHT [5]: approximately three times less potent than BHT; DPPH antioxidant activity relative to ascorbic acid [4]: approximately twice as potent as ascorbic acid; Ki (recombinant human AChE): 52 ± 6 µM
CC(C)(C)C1=CC(=O)C=C(N[C@@H](Cc2ccccc2)C(=O)O)C1=O [Compound 15]	43.2 µM and 43.2 ± 1.6 µM	34 ± 2	1.7	59 ± 5	15 ± 3.8	
CC(C)(C)C1=CC(=O)C2=C(SCCS2)C1=O [Compound 11]						DPPH antioxidant activity relative to ascorbic acid [4]: approximately twice as potent as ascorbic acid
CNC1=CC(=O)C(C(C)(C)C)=CC1=O [Compound 12]		228 ± 56				AChE inhibition (recombinant human AChE; any of the tested concentrations): did not inhibit AChE
CC(C)(C)C1=CC(=O)C(SCCO)=CC1=O [Compound 3]	23.9 ± 1.6 µM	8.8 ± 0.8	6.5	57 ± 4	5.7	fold higher AChE inhibition potency than meta position counterpart (recombinant human AChE): approximately 1.7
CC(C)(C)C1=CC(=O)C(N2CCC[C@H]2C(=O)O)=CC1=O [Compound 14]	19.7 ± 1.6 µM	36 ± 2	0.58	21 ± 1	10.1 ± 2	times less potent as inhibitor of AChE than donepezil (recombinant human AChE): ~1166; times less potent as inhibitor of AChE than galantamine (recombinant human AChE): about 54
CC(C)(C)C1=CC(=O)C=C(Sc2ccc(O)cc2)C1=O [Compound 7]	≥50 µM	23 ± 2	1.6	37 ± 4	16.7 ± 2.8	
COc1ccc(SC2=CC(=O)C=C(C(C)(C)C)C2=O)cc1 [Compound 8]	3.6 ± 0.6 µM	29 ± 3	2.9	85 ± 5		
CC(C)(C)C1=CC(=O)C=C(SC2CCCC2)C1=O [Compound 4]		30 ± 6	1.9	56 ± 8		
CC(C)(C)C1=CC(=O)C=C(SCCc2ccccc2)C1=O [Compound 9]	5.2 ± 0.0 µM	25 ± 3	0.96	24 ± 1	27.4	AChE type of inhibition (in words) (recombinant human AChE): non-competitive; times less potent as inhibitor of AChE than donepezil (recombinant human AChE): ~1166; times less potent as inhibitor of AChE than galantamine (recombinant human AChE): about 54
